Measured values published in doi:10.1101/2025.11.20.689572v1 (biorxiv, 2025).
Read-outs that look alike come from different tables or passages of the source.

Assays:
[1] = biological target: T1, 5-HT2B (Homo sapiens, UniProt P41595); experiment: competitive radioligand binding, HEK293 membranes
T1 construct: gene HTR2B; full-length receptor; HEK293 cell membranes
Source text: competitive radioligand binding, HEK293 membranes on 5-HT2B

[2] = biological target: T2, M3 (Homo sapiens, UniProt P20309); experiment: competitive radioligand binding, HEK293 membranes
T2 construct: gene CHRM3; full-length receptor; HEK293 with TRUPATH sensors (function)
Source text: competitive radioligand binding, HEK293 membranes on M3

[3] = biological target: T3, M1 (Homo sapiens, UniProt P11229); experiment: TRUPATH BRET2 G protein dissociation, HEK293; format: cell-based; details: HBSS, […] HEPES pH […] °C; agonist mode
T3 construct: gene CHRM1; full-length receptor; HEK293 with TRUPATH sensors (function)
T3 sequence (P11229 1-460): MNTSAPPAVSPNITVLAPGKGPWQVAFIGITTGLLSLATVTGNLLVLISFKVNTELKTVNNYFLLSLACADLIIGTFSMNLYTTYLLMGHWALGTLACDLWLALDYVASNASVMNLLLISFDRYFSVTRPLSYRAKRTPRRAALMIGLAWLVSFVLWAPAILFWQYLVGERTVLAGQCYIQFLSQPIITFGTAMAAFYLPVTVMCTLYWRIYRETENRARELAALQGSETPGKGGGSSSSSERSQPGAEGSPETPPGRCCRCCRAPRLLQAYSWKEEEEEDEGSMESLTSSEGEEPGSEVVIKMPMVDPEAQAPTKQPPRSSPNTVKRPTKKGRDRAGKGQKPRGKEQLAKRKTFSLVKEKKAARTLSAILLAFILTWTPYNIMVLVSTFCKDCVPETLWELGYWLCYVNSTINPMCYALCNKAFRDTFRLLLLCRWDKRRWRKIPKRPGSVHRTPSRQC

[4] = biological target: T2, M3; experiment: TRUPATH BRET2 G protein dissociation, HEK293; format: cell-based; details: HBSS, […] HEPES pH […] °C; agonist mode
[5] = biological target: T4, 5-HT1B (Homo sapiens, UniProt P28222); experiment: competitive radioligand binding, HEK293 membranes
T4 construct: gene HTR1B; full-length receptor; HEK293 cell membranes
Source text: competitive radioligand binding, HEK293 membranes on 5-HT1B

[6] = biological target: T5, CHRM2 (Homo sapiens, UniProt P08172); experiment: cell-based; design: PRESTO-Tango beta-arrestin2 recruitment, luciferase luminescence, concentration-response; details: HTLA, Assay=Tango, agonist mode, % of control agonist
T5 sequence (P08172 1-466): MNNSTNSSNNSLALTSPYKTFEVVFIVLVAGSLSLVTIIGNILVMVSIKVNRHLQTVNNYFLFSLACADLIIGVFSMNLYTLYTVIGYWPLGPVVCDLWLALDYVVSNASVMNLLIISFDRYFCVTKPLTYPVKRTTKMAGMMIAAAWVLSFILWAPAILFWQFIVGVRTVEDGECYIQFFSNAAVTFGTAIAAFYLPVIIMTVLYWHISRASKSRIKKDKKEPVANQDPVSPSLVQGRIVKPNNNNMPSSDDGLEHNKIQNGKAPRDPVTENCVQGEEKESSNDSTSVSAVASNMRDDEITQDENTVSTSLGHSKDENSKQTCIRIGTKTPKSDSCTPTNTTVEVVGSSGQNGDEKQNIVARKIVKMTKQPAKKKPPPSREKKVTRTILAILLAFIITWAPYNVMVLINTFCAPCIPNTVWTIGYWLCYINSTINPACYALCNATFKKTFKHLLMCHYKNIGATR
Procedure: Off-target agonism across the human GPCRome was profiled using PRESTO-Tango, following established protocols with minor adaptations [10]–[12]. […] After ~6 h recovery, cells were transfected with 20 ng plasmid DNA per well and incubated overnight. The next day, 10 µL of test compound (prepared in DMEM + 1% dFBS) was added, and plates were incubated overnight. Media and compounds were removed, and 20 µL per well of Bright-Glo luciferase reagent diluted in assay buffer (Hank’s Balanced Salt Solution (HBSS), 20 mM HEPES, pH 7.4) was added. After 20 min at room temperature (dark), luminescence was recorded. Each plate included the dopamine D2 receptor (DRD2) stimulated with 100 nM quinpirole as a positive control. For the GPCRome screen, each receptor was tested in quadruplicate at 0 and 10 µM compound (final). Responses were expressed as fold change relative to the basal (0 µM) condition. Follow-up concentration–response assays were performed under identical conditions except that serial dilutions of compounds (maximum ~30 µM, final) were added to generate full concentration–response curves.

[7] = biological target: CHRM3 (Homo sapiens, UniProt P20309); experiment: cell-based; design: species or system HEK293; Fluo-4 Direct calcium mobilization on FLIPR-Tetra; details: Assay=Calcium; agonist mode
[8] = biological target: HRH3 (Homo sapiens, UniProt Q9Y5N1); experiment: cell-based; design: species or system HTLA; PRESTO-Tango beta-arrestin2 recruitment, luciferase luminescence, concentration-response; details: Assay=Tango; agonist mode
Sequence of HRH3 (Q9Y5N1 whole entry): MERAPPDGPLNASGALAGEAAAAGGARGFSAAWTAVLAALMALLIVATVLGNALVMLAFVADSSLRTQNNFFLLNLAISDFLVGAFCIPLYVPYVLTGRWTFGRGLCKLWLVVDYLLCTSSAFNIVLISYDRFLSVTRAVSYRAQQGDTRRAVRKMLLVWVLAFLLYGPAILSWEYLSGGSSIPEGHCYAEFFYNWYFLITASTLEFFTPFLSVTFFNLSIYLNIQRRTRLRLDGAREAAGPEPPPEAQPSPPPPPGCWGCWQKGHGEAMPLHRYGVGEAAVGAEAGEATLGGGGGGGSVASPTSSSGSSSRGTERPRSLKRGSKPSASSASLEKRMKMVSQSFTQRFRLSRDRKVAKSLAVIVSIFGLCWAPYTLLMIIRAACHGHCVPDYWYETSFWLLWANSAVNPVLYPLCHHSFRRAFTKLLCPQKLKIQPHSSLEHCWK

T2 sequence (P20309 whole entry): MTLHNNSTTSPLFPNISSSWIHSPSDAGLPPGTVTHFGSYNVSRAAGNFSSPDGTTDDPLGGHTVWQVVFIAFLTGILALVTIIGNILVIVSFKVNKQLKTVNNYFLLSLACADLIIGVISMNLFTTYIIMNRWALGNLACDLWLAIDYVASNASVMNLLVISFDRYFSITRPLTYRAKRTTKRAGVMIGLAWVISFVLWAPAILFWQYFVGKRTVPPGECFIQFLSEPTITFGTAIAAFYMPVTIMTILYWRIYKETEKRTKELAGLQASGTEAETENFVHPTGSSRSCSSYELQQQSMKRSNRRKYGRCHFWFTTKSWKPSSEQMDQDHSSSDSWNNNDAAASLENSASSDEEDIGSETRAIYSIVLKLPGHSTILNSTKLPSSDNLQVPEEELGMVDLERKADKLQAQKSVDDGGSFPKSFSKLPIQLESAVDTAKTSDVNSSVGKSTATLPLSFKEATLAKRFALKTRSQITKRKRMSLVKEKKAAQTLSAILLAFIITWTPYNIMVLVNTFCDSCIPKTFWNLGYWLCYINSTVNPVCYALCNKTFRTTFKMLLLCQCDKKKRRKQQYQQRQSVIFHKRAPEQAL
T1 sequence (P41595 whole entry): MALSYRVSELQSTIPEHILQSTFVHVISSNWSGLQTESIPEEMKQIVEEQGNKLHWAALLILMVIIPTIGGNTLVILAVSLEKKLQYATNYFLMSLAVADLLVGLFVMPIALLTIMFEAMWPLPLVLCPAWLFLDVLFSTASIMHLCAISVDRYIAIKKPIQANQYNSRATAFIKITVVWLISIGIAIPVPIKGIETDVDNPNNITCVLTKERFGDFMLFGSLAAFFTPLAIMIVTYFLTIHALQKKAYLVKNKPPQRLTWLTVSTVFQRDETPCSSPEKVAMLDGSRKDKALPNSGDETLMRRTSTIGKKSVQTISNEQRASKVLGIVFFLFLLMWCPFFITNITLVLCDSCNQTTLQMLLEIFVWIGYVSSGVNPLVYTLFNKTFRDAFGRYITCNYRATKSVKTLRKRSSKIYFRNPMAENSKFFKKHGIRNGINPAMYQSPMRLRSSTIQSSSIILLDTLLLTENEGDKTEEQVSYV
T4 sequence (P28222 whole entry): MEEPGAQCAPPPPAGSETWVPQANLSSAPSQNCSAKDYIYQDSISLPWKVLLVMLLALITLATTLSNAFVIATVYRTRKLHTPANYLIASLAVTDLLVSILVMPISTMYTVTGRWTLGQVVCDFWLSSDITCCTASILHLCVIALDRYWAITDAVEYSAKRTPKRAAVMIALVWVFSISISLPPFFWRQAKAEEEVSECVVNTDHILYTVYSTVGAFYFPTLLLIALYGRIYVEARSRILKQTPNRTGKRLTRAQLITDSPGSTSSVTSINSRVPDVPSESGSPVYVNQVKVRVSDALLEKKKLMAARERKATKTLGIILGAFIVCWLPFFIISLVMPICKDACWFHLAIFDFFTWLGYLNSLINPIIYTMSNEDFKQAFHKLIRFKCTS
Sequence of CHRM3 (P20309 whole entry): as the sequence (P20309 whole entry) above

Structure (SMILES) | Ki [1] [nM] | Ki [2] [nM] | EC50 [3] | EC50 [4] | Ki [5] [nM] | Emax ([6]; read-out: N-Desmethyl Xanomeline) [%] | EC50 [7] [nM] | EC50 [8] [nM] | Emax ([6]; read-out: Xanomeline) [%]
CCCCCCOc1nsnc1C1=CCCNC1 [N-desmethylxanomeline] | 15.8 | 112 | differential activation of M1-M5 muscarinic receptor transducers | differential activation of M1-M5 muscarinic receptor transducers | 178 | 42.6 | 64.1 | 7580 | –
CCCCCCOc1nsnc1C1=CCCN(C)C1 [Xanomeline] | 39.8 | 74.1 | xanomeline being more potent and efficacious than carbachol at M1 and M4 muscarinic receptors | differential activation of M1-M5 muscarinic receptor transducers | 724 | – | 34 | 9440 | 45.5
